{"source": "patent US20100216719A1", "about": "“Soluble Fiber Combinations for Weight Control and Improving Parameters of Cardiovascular Health” (MANNATECH, INCORPORATED, priority 2005, published 2010)", "origin": "cited, not measured here", "key": {"[1]": {"conditions": "subjects supplemented with 3.8 grams per day for 28 days"}, "[2]": {"conditions": "test animals"}}}
{"substance": "Konjac glucomannan", "values": [{"measurement": "reduction in ApoB", "setting": "[1]", "result": 12.9, "unit": "%"}, {"measurement": "reduction in LDL cholesterol", "setting": "[1]", "result": 20.7, "unit": "%"}, {"measurement": "reduction in fasting glucose levels", "setting": "[1]", "result": 23.2, "unit": "%"}, {"measurement": "reduction in plasma cholesterol", "setting": "[1]", "result": 11.1, "unit": "%"}, {"measurement": "reduction in total cholesterol/HDL cholesterol ratio", "setting": "[1]", "result": 15.6, "unit": "%"}]}
{"substance": "guar gum", "values": [{"measurement": "effect on cholesterol", "setting": "[2]", "result": "decreased only cholesterol"}]}
{"substance": "xanthan gum", "values": [{"measurement": "effect on cholesterol", "setting": "[2]", "result": "significantly reduced"}, {"measurement": "effect on triglycerides", "setting": "[2]", "result": "significantly reduced"}]}
